From patent publication US10738028B2, “Spiro three-membered ring, spiro five-membered ring peptide deformylase inhibitor and use thereof in antibacteria and anti-tumor” (priority 2016, dated 2020)

Legend:
Format in all cases: cell-based
[1] = test system: methicillin-sensitive Staphylococcus epidermidis (MSSE); assay: MIC, two-fold agar dilution (CLSI), clinical isolates; conditions: for Anti-bacterial activity (MIC), strain MSSE 15-3: clinical isolate MSSE 15-3; for Anti-bacterial activity (MIC), strain MSSE 15-4: clinical isolate MSSE 15-4; for Anti-bacterial activity (MIC), strain MSSE 15-5: clinical isolate MSSE 15-5; for Anti-bacterial activity (MIC), strain MSSE 15-6: clinical isolate MSSE 15-6
In short: (§1)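 Following the American Clinical and Laboratory Standards Institute procedure, agar two-fold dilution served to determine minimum inhibitory concentrations.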

[2] = test system: methicillin-resistant Staphylococcus aureus (MRSA); assay: as above; conditions: for Anti-bacterial activity (MIC), strain MRSA 15-1: clinical isolate MRSA 15-1; for Anti-bacterial activity (MIC), strain MRSA 15-2: clinical isolate MRSA 15-2; for Anti-bacterial activity (MIC), strain MRSA 15-3: clinical isolate MRSA 15-3; for Anti-bacterial activity (MIC), strain MRSA 15-4: clinical isolate MRSA 15-4
In short: as §1

[3] = test system: methicillin-resistant Staphylococcus epidermidis (MRSE); assay: as above; conditions: for Anti-bacterial activity (MIC), strain MRSE 15-1: clinical isolate MRSE 15-1; for Anti-bacterial activity (MIC), strain MRSE 15-2: clinical isolate MRSE 15-2; for Anti-bacterial activity (MIC), strain MRSE 15-3: clinical isolate MRSE 15-3; for Anti-bacterial activity (MIC), strain MRSE 15-7: clinical isolate MRSE 15-7
In short: as §1

[4] = test system: Enterococcus faecium (EFM); assay: as above; conditions: for Anti-bacterial activity (MIC), strain EFM 15-1: clinical isolate EFM 15-1; for Anti-bacterial activity (MIC), strain EFM 15-2: clinical isolate EFM 15-2; for Anti-bacterial activity (MIC), strain EFM 15-3: clinical isolate EFM 15-3; for Anti-bacterial activity (MIC), strain EFM 15-4: clinical isolate EFM 15-4; for Anti-bacterial activity (MIC), strain EFM 15-5: clinical isolate EFM 15-5; for Anti-bacterial activity (MIC), strain EFM 15-6: clinical isolate EFM 15-6
In short: as §1

[5] = test system: Streptococcus pneoumoniae (SPN); assay: as above; conditions: for Anti-bacterial activity (MIC), strain SPN 16-2: clinical isolate SPN 16-2; for Anti-bacterial activity (MIC), strain SPN 16-4: clinical isolate SPN 16-4
In short: as §1

[6] = test system: Moraxella catarrhalis (BCA); assay: as above; conditions: for Anti-bacterial activity (MIC), strain BCA 14-1: clinical isolate BCA 14-1; for Anti-bacterial activity (MIC), strain BCA 14-4: clinical isolate BCA 14-4; for Anti-bacterial activity (MIC), strain BCA 14-5: clinical isolate BCA 14-5; for Anti-bacterial activity (MIC), strain BCA 14-6: clinical isolate BCA 14-6; for Anti-bacterial activity (MIC), strain BCA 14-7: clinical isolate BCA 14-7; for Anti-bacterial activity (MIC), strain BCA 14-8: clinical isolate BCA 14-8; for Anti-bacterial activity (MIC), strain BCA 14-10: clinical isolate BCA 14-10
In short: as §1

[7] = test system: Escherichia coli (including ESBLs, non-ESBLs); assay: as above; conditions: for Anti-bacterial activity (MIC), strain ECO+ 15-1: clinical isolate ECO+ 15-1; for Anti-bacterial activity (MIC), strain ECO+ 15-2: clinical isolate ECO+ 15-2; for Anti-bacterial activity (MIC), strain ECO+ 15-3: clinical isolate ECO+ 15-3; for Anti-bacterial activity (MIC), strain ECO+ 15-4: clinical isolate ECO+ 15-4; for Anti-bacterial activity (MIC), strain ECO− 15-1: clinical isolate ECO− 15-1; for Anti-bacterial activity (MIC), strain ECO− 15-2: clinical isolate ECO− 15-2; for Anti-bacterial activity (MIC), strain ECO− 15-3: clinical isolate ECO− 15-3; for Anti-bacterial activity (MIC), strain ECO− 15-4: clinical isolate ECO− 15-4
In short: as §1

[8] = test system: Enterococcus faecalis (EFA); assay: as above; conditions: for Anti-bacterial activity (MIC), strain EFA 15-1: clinical isolate EFA 15-1; for Anti-bacterial activity (MIC), strain EFA 15-2: clinical isolate EFA 15-2; for Anti-bacterial activity (MIC), strain EFA 15-3: clinical isolate EFA 15-3; for Anti-bacterial activity (MIC), strain EFA 15-4: clinical isolate EFA 15-4; for Anti-bacterial activity (MIC), strain EFA 15-5: clinical isolate EFA 15-5; for Anti-bacterial activity (MIC), strain EFA 15-6: clinical isolate EFA 15-6; for Anti-bacterial activity (MIC), strain EFA 15-9: clinical isolate EFA 15-9
In short: as §1

[9] = test system: methicillin-sensitive Staphylococcus aureus (MSSA); assay: as above; conditions: for Anti-bacterial activity (MIC), strain MSSA 15-3: clinical isolate MSSA 15-3; for Anti-bacterial activity (MIC), strain MSSA 15-4: clinical isolate MSSA 15-4; for Anti-bacterial activity (MIC), strain MSSA 15-5: clinical isolate MSSA 15-5; for Anti-bacterial activity (MIC), strain MSSA 15-6: clinical isolate MSSA 15-6
In short: as §1

[10] = test system: HCT-116 colorectal cancer cell line; assay: CCK-8 proliferation inhibition; conditions: Homo sapiens, HCT-116, 72 h, concentration of 30 μM; 72 hours; CCK-8; read-out: HCT116 inhibition rate/%
In short: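 Viability read-out: 1:10 diluted CCK-8 after 72 h compound exposure at 37 °C, 5% CO2. Cells (2000/well, McCoy's 5A plus 10% newborn bovine serum) pre-cultured overnight; vehicle control 1‰ DMSO.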

## CCCC[C@H](CC(=O)NO)C(=O)N1CC2(CC2)C[C@H]1C(=O)Nc1cc(C)on1 [Example 56, (S)-5-((R)-2-(2-(hydroxyamino)-2-oxoethyl)hexanoyl)-N-(5-methylisoxazol-3-yl)-5-spiro[2.4]heptane-6-carboxamide]
[1]
  Anti-bacterial activity (MIC), strain MSSE 15-3: 0.25 µg/mL
  Anti-bacterial activity (MIC), strain MSSE 15-4: 0.06 µg/mL
  Anti-bacterial activity (MIC), strain MSSE 15-5: 0.06 µg/mL
  Anti-bacterial activity (MIC), strain MSSE 15-6: 0.06 µg/mL
[2]
  Anti-bacterial activity (MIC), strain MRSA 15-1: 0.25 µg/mL
  Anti-bacterial activity (MIC), strain MRSA 15-2: 2 µg/mL
  Anti-bacterial activity (MIC), strain MRSA 15-3: 0.5 µg/mL
  Anti-bacterial activity (MIC), strain MRSA 15-4: 2 µg/mL
[3]
  Anti-bacterial activity (MIC), strain MRSE 15-1: 0.125 µg/mL
  Anti-bacterial activity (MIC), strain MRSE 15-2: 2 µg/mL
  Anti-bacterial activity (MIC), strain MRSE 15-3: 0.25 µg/mL
  Anti-bacterial activity (MIC), strain MRSE 15-7: 0.5 µg/mL
[4]
  Anti-bacterial activity (MIC), strain EFM 15-1: 1 µg/mL
  Anti-bacterial activity (MIC), strain EFM 15-2: 4 µg/mL
  Anti-bacterial activity (MIC), strain EFM 15-3: 1 µg/mL
  Anti-bacterial activity (MIC), strain EFM 15-4: 4 µg/mL
  Anti-bacterial activity (MIC), strain EFM 15-5: 1 µg/mL
  Anti-bacterial activity (MIC), strain EFM 15-6: 4 µg/mL
[5]
  Anti-bacterial activity (MIC), strain SPN 16-2: 8 µg/mL
  Anti-bacterial activity (MIC), strain SPN 16-4: 1 µg/mL
[6]
  Anti-bacterial activity (MIC), strain BCA 14-1: 4 µg/mL
  Anti-bacterial activity (MIC), strain BCA 14-4: 4 µg/mL
  Anti-bacterial activity (MIC), strain BCA 14-5: 1 µg/mL
  Anti-bacterial activity (MIC), strain BCA 14-6: 8 µg/mL
  Anti-bacterial activity (MIC), strain BCA 14-7: 2 µg/mL
  Anti-bacterial activity (MIC), strain BCA 14-8: 2 µg/mL
  Anti-bacterial activity (MIC), strain BCA 14-10: 2 µg/mL
[7]
  Anti-bacterial activity (MIC), strain ECO+ 15-1: > 16 µg/mL
  Anti-bacterial activity (MIC), strain ECO+ 15-2: > 16 µg/mL
  Anti-bacterial activity (MIC), strain ECO+ 15-3: > 16 µg/mL
  Anti-bacterial activity (MIC), strain ECO+ 15-4: > 16 µg/mL
  Anti-bacterial activity (MIC), strain ECO− 15-1: > 16 µg/mL
  Anti-bacterial activity (MIC), strain ECO− 15-2: > 16 µg/mL
  Anti-bacterial activity (MIC), strain ECO− 15-3: > 16 µg/mL
  Anti-bacterial activity (MIC), strain ECO− 15-4: > 16 µg/mL
[8]
  Anti-bacterial activity (MIC), strain EFA 15-1: 16 µg/mL
  Anti-bacterial activity (MIC), strain EFA 15-2: 16 µg/mL
  Anti-bacterial activity (MIC), strain EFA 15-3: 16 µg/mL
  Anti-bacterial activity (MIC), strain EFA 15-4: 16 µg/mL
  Anti-bacterial activity (MIC), strain EFA 15-5: 16 µg/mL
  Anti-bacterial activity (MIC), strain EFA 15-6: 16 µg/mL
  Anti-bacterial activity (MIC), strain EFA 15-9: 16 µg/mL
[9]
  Anti-bacterial activity (MIC), strain MSSA 15-3: 0.25 µg/mL
  Anti-bacterial activity (MIC), strain MSSA 15-4: 0.25 µg/mL
  Anti-bacterial activity (MIC), strain MSSA 15-5: 0.125 µg/mL
  Anti-bacterial activity (MIC), strain MSSA 15-6: 0.25 µg/mL
[10]
  inhibition at 30 µM: 10%

## CCCC[C@H](CC(=O)NO)C(=O)N1CC2(CC2)C[C@H]1c1nc2ccccc2[nH]1 [Example 58, (R)-3-((S)-6-(1H-benzimidazol-2-yl)-5-azaspiro[2.4]heptane-5-formyl)-N-hydroxyheptanamide]
[1]
  Anti-bacterial activity (MIC), strain MSSE 15-3: > 32 µg/mL
  Anti-bacterial activity (MIC), strain MSSE 15-4: > 32 µg/mL
  Anti-bacterial activity (MIC), strain MSSE 15-5: > 32 µg/mL
  Anti-bacterial activity (MIC), strain MSSE 15-6: > 32 µg/mL
[2]
  Anti-bacterial activity (MIC), strain MRSA 15-1: > 32 µg/mL
  Anti-bacterial activity (MIC), strain MRSA 15-2: > 32 µg/mL
  Anti-bacterial activity (MIC), strain MRSA 15-3: > 32 µg/mL
  Anti-bacterial activity (MIC), strain MRSA 15-4: > 32 µg/mL
[3]
  Anti-bacterial activity (MIC), strain MRSE 15-1: > 32 µg/mL
  Anti-bacterial activity (MIC), strain MRSE 15-2: > 32 µg/mL
  Anti-bacterial activity (MIC), strain MRSE 15-3: > 32 µg/mL
  Anti-bacterial activity (MIC), strain MRSE 15-7: > 32 µg/mL
[4]
  Anti-bacterial activity (MIC), strain EFM 15-1: > 32 µg/mL
  Anti-bacterial activity (MIC), strain EFM 15-2: > 32 µg/mL
  Anti-bacterial activity (MIC), strain EFM 15-3: > 32 µg/mL
  Anti-bacterial activity (MIC), strain EFM 15-4: 8 µg/mL
  Anti-bacterial activity (MIC), strain EFM 15-5: 8 µg/mL
  Anti-bacterial activity (MIC), strain EFM 15-6: 8 µg/mL
[5]
  Anti-bacterial activity (MIC), strain SPN 16-2: 8 µg/mL
  Anti-bacterial activity (MIC), strain SPN 16-4: > 32 µg/mL
[6]
  Anti-bacterial activity (MIC), strain BCA 14-1: > 32 µg/mL
  Anti-bacterial activity (MIC), strain BCA 14-4: > 32 µg/mL
  Anti-bacterial activity (MIC), strain BCA 14-5: 8 µg/mL
  Anti-bacterial activity (MIC), strain BCA 14-6: > 32 µg/mL
  Anti-bacterial activity (MIC), strain BCA 14-7: > 32 µg/mL
  Anti-bacterial activity (MIC), strain BCA 14-8: > 32 µg/mL
  Anti-bacterial activity (MIC), strain BCA 14-10: > 32 µg/mL
[7]
  Anti-bacterial activity (MIC), strain ECO+ 15-1: > 32 µg/mL
  Anti-bacterial activity (MIC), strain ECO+ 15-2: > 32 µg/mL
  Anti-bacterial activity (MIC), strain ECO+ 15-3: > 32 µg/mL
  Anti-bacterial activity (MIC), strain ECO+ 15-4: > 32 µg/mL
  Anti-bacterial activity (MIC), strain ECO− 15-1: > 32 µg/mL
  Anti-bacterial activity (MIC), strain ECO− 15-2: > 32 µg/mL
  Anti-bacterial activity (MIC), strain ECO− 15-3: > 32 µg/mL
  Anti-bacterial activity (MIC), strain ECO− 15-4: > 32 µg/mL
[8]
  Anti-bacterial activity (MIC), strain EFA 15-1: > 32 µg/mL
  Anti-bacterial activity (MIC), strain EFA 15-2: > 32 µg/mL
  Anti-bacterial activity (MIC), strain EFA 15-3: > 32 µg/mL
  Anti-bacterial activity (MIC), strain EFA 15-4: > 32 µg/mL
  Anti-bacterial activity (MIC), strain EFA 15-5: > 32 µg/mL
  Anti-bacterial activity (MIC), strain EFA 15-6: > 32 µg/mL
  Anti-bacterial activity (MIC), strain EFA 15-9: > 32 µg/mL
[9]
  Anti-bacterial activity (MIC), strain MSSA 15-3: > 32 µg/mL
  Anti-bacterial activity (MIC), strain MSSA 15-4: > 32 µg/mL
  Anti-bacterial activity (MIC), strain MSSA 15-5: > 32 µg/mL
  Anti-bacterial activity (MIC), strain MSSA 15-6: > 32 µg/mL
[10]
  inhibition at 30 µM: 24%
